Measured values published in PubChem BioAssay (NCI).
“And” between values parts separate entries of the source, which are not always exact repeats. Equal values may be shown once.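 Five compound concentrations were applied to cells in 96-well plates for 48 hours; endpoints were derived by simple linear interpolation of the resulting dose-response curve. Here, GI50 denotes the concentration required for 50% inhibition of growth. TGI is the concentration that stops growth completely.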

Legend:
Assay in all cases: NCI tumour cell line growth inhibition, 48 h
SR leukemia = test system: SR leukemia
LOX IMVI melanoma = test system: LOX IMVI melanoma
DU-145 prostate = test system: DU-145 prostate
KM12 colon = test system: KM12 colon
M14 melanoma = test system: M14 melanoma
SK-OV-3 ovarian = test system: SK-OV-3 ovarian
RPMI-8226 leukemia = test system: RPMI-8226 leukemia
UO-31 renal = test system: UO-31 renal
MCF7 breast = test system: MCF7 breast
SF-295 CNS = test system: SF-295 CNS
MDA-MB-231 breast = test system: MDA-MB-231 breast
OVCAR-5 ovarian = test system: OVCAR-5 ovarian
HCT-116 colon = test system: HCT-116 colon
TK-10 renal = test system: TK-10 renal
SW-620 colon = test system: SW-620 colon
HS 578T breast = test system: HS 578T breast
786-0 renal = test system: 786-0 renal
ACHN renal = test system: ACHN renal
SNB-75 CNS = test system: SNB-75 CNS
MALME-3M melanoma = test system: MALME-3M melanoma
NCI-H460 lung = test system: NCI-H460 lung
SNB-19 CNS = test system: SNB-19 CNS
SK-MEL-28 melanoma = test system: SK-MEL-28 melanoma
OVCAR-4 ovarian = test system: OVCAR-4 ovarian
SK-MEL-5 melanoma = test system: SK-MEL-5 melanoma
NCI/ADR-RES ovarian = test system: NCI/ADR-RES ovarian
CAKI-1 renal = test system: CAKI-1 renal
HCC-2998 colon = test system: HCC-2998 colon
MOLT-4 leukemia = test system: MOLT-4 leukemia
SN12C renal = test system: SN12C renal
A549 NSCLC = test system: A549 NSCLC
IGROV1 ovarian = test system: IGROV1 ovarian
RXF 393 renal = test system: RXF 393 renal
OVCAR-8 ovarian = test system: OVCAR-8 ovarian
EKVX NSCLC = test system: EKVX NSCLC
CCRF-CEM leukemia = test system: CCRF-CEM leukemia
T-47D breast = test system: T-47D breast
NCI-H23 lung = test system: NCI-H23 lung
U251 CNS = test system: U251 CNS
SF-268 CNS = test system: SF-268 CNS
HCT-15 colon = test system: HCT-15 colon
NCI-H226 lung = test system: NCI-H226 lung
SF-539 CNS = test system: SF-539 CNS
UACC-62 melanoma = test system: UACC-62 melanoma
HOP-62 NSCLC = test system: HOP-62 NSCLC
K-562 leukemia = test system: K-562 leukemia
PC-3 prostate = test system: PC-3 prostate
UACC-257 melanoma = test system: UACC-257 melanoma
HOP-92 NSCLC = test system: HOP-92 NSCLC
BT-549 breast = test system: BT-549 breast
HL-60(TB) leukemia = test system: HL-60(TB) leukemia
COLO 205 colon = test system: COLO 205 colon
HT29 colon = test system: HT29 colon
MDA-MB-435 = test system: MDA-MB-435
NCI-H522 lung = test system: NCI-H522 lung
SK-MEL-2 melanoma = test system: SK-MEL-2 melanoma

SMILES: COc1cc(C)c(-c2ccc(OC)c(=O)cc2C)c(OC)c1OC
- TGI (SR leukemia): > 100 µM
- TGI (LOX IMVI melanoma): > 100 µM
- TGI (DU-145 prostate): > 100 µM
- TGI (KM12 colon): > 100 µM
- TGI (M14 melanoma): > 100 µM
- TGI (SK-OV-3 ovarian): > 100 µM
- TGI (RPMI-8226 leukemia): > 100 µM
- TGI (UO-31 renal): > 100 µM
- TGI (MCF7 breast): > 100 µM
- TGI (SF-295 CNS): > 100 µM
- TGI (MDA-MB-231 breast): > 100 µM
- TGI (OVCAR-5 ovarian): > 100 µM
- TGI (HCT-116 colon): > 100 µM
- GI50 (TK-10 renal): 66.3 µM and > 100 µM
- TGI (TK-10 renal): > 100 µM
- TGI (SW-620 colon): > 100 µM
- GI50 (HS 578T breast): > 100 µM
- TGI (HS 578T breast): > 100 µM
- TGI (786-0 renal): > 100 µM
- TGI (ACHN renal): > 100 µM
- GI50 (SNB-75 CNS): > 100 µM
- TGI (SNB-75 CNS): > 100 µM
- GI50 (MALME-3M melanoma): > 100 µM
- TGI (MALME-3M melanoma): > 100 µM
- TGI (NCI-H460 lung): > 100 µM
- TGI (SNB-19 CNS): > 100 µM
- GI50 (SK-MEL-28 melanoma): > 100 µM
- TGI (SK-MEL-28 melanoma): > 100 µM
- GI50 (OVCAR-4 ovarian): 44.2 µM and > 100 µM
- TGI (OVCAR-4 ovarian): > 100 µM
- TGI (SK-MEL-5 melanoma): 38.3 µM and > 100 µM
- GI50 (NCI/ADR-RES ovarian): > 100 µM
- TGI (NCI/ADR-RES ovarian): > 100 µM
- TGI (CAKI-1 renal): > 100 µM
- TGI (HCC-2998 colon): > 100 µM
- TGI (MOLT-4 leukemia): > 100 µM
- TGI (SN12C renal): > 100 µM
- TGI (A549 NSCLC): > 100 µM
- TGI (IGROV1 ovarian): > 100 µM
- TGI (RXF 393 renal): > 100 µM
- TGI (OVCAR-8 ovarian): > 100 µM
- TGI (EKVX NSCLC): > 100 µM
- TGI (CCRF-CEM leukemia): > 100 µM
- TGI (T-47D breast): > 100 µM
- TGI (NCI-H23 lung): > 100 µM
- TGI (U251 CNS): > 100 µM
- TGI (SF-268 CNS): > 100 µM
- TGI (HCT-15 colon): > 100 µM
- TGI (NCI-H226 lung): > 100 µM
- TGI (SF-539 CNS): > 100 µM
- TGI (UACC-62 melanoma): > 100 µM
- TGI (HOP-62 NSCLC): > 100 µM
- TGI (K-562 leukemia): > 100 µM
- TGI (PC-3 prostate): > 100 µM
- TGI (UACC-257 melanoma): > 100 µM
- GI50 (HOP-92 NSCLC): 3.53 µM and 22.4 µM
- TGI (HOP-92 NSCLC): > 100 µM

SMILES: ClC(Cl)c1nc(-c2ccco2)n2nc(-c3ccccc3)cc2n1
- GI50 (BT-549 breast): > 100 µM
- TGI (BT-549 breast): > 100 µM
- GI50 (HL-60(TB) leukemia): 0.304 µM
- TGI (HL-60(TB) leukemia): 1.69 µM
- GI50 (SR leukemia): > 60.2 µM
- TGI (SR leukemia): > 100 µM
- GI50 (LOX IMVI melanoma): > 100 µM
- TGI (LOX IMVI melanoma): > 100 µM
- GI50 (DU-145 prostate): 0.355 µM
- TGI (DU-145 prostate): 1.41 µM
- GI50 (KM12 colon): 0.352 µM
- TGI (KM12 colon): 1.71 µM
- GI50 (M14 melanoma): > 100 µM
- TGI (M14 melanoma): > 100 µM
- GI50 (SK-OV-3 ovarian): 6.76 µM
- TGI (SK-OV-3 ovarian): > 100 µM
- GI50 (RPMI-8226 leukemia): 0.54 µM
- TGI (RPMI-8226 leukemia): > 22.6 µM
- GI50 (UO-31 renal): 1.61 µM
- TGI (UO-31 renal): > 23.9 µM
- GI50 (SF-295 CNS): 1.66 µM
- TGI (SF-295 CNS): 6.13 µM
- GI50 (MDA-MB-231 breast): 0.791 µM
- TGI (MDA-MB-231 breast): 5.02 µM
- GI50 (OVCAR-5 ovarian): 2.02 µM
- TGI (OVCAR-5 ovarian): > 100 µM
- GI50 (HCT-116 colon): 0.639 µM
- TGI (HCT-116 colon): > 39.3 µM
- GI50 (TK-10 renal): 4.96 µM
- TGI (TK-10 renal): > 100 µM
- GI50 (SW-620 colon): 0.445 µM
- TGI (SW-620 colon): > 82.5 µM
- GI50 (HS 578T breast): 2.17 µM
- TGI (HS 578T breast): 7.46 µM
- GI50 (786-0 renal): > 23.5 µM
- TGI (786-0 renal): > 100 µM
- GI50 (ACHN renal): 0.365 µM
- TGI (ACHN renal): 2.03 µM
- GI50 (SNB-75 CNS): 0.219 µM
- TGI (SNB-75 CNS): 3.07 µM
- GI50 (MALME-3M melanoma): > 100 µM
- TGI (MALME-3M melanoma): > 100 µM
- GI50 (NCI-H460 lung): 0.265 µM
- TGI (NCI-H460 lung): 0.844 µM
- GI50 (SNB-19 CNS): 0.998 µM
- TGI (SNB-19 CNS): > 100 µM
- GI50 (SK-MEL-28 melanoma): 3.76 µM
- TGI (SK-MEL-28 melanoma): > 100 µM
- GI50 (OVCAR-4 ovarian): 5.45 µM
- TGI (OVCAR-4 ovarian): > 100 µM
- GI50 (SK-MEL-5 melanoma): > 100 µM
- TGI (SK-MEL-5 melanoma): > 100 µM
- GI50 (NCI/ADR-RES ovarian): 0.801 µM
- TGI (NCI/ADR-RES ovarian): > 100 µM
- GI50 (COLO 205 colon): 1.15 µM
- TGI (COLO 205 colon): 3.58 µM
- GI50 (HCC-2998 colon): 0.553 µM
- TGI (HCC-2998 colon): 1.85 µM
- GI50 (MOLT-4 leukemia): > 100 µM
- TGI (MOLT-4 leukemia): > 100 µM
- GI50 (SN12C renal): > 100 µM
- TGI (SN12C renal): > 100 µM
- GI50 (A549 NSCLC): 1.56 µM
- TGI (A549 NSCLC): 6.16 µM
- GI50 (IGROV1 ovarian): > 63.1 µM
- TGI (IGROV1 ovarian): > 100 µM
- GI50 (RXF 393 renal): 0.528 µM
- TGI (RXF 393 renal): 76.4 µM
- GI50 (HT29 colon): 0.338 µM
- TGI (HT29 colon): 2.16 µM
- GI50 (MDA-MB-435): 2.64 µM
- TGI (MDA-MB-435): > 100 µM
- GI50 (OVCAR-8 ovarian): 1.62 µM
- TGI (OVCAR-8 ovarian): > 100 µM
- GI50 (EKVX NSCLC): 1.56 µM
- TGI (EKVX NSCLC): 5.18 µM
- GI50 (CCRF-CEM leukemia): > 100 µM
- TGI (CCRF-CEM leukemia): > 100 µM
- GI50 (T-47D breast): 1.47 µM
- TGI (T-47D breast): > 100 µM
- GI50 (NCI-H23 lung): 9.81 µM
- TGI (NCI-H23 lung): > 100 µM
- GI50 (U251 CNS): 0.343 µM
- TGI (U251 CNS): 2.33 µM
- GI50 (SF-268 CNS): 1.98 µM
- TGI (SF-268 CNS): > 100 µM
- GI50 (HCT-15 colon): 0.617 µM
- TGI (HCT-15 colon): > 100 µM
- GI50 (NCI-H226 lung): > 100 µM
- TGI (NCI-H226 lung): > 100 µM
- GI50 (UACC-62 melanoma): > 100 µM
- TGI (UACC-62 melanoma): > 100 µM
- GI50 (NCI-H522 lung): > 100 µM
- TGI (NCI-H522 lung): > 100 µM
- GI50 (HOP-62 NSCLC): 0.679 µM
- TGI (HOP-62 NSCLC): 4.5 µM
- GI50 (K-562 leukemia): > 39.1 µM
- TGI (K-562 leukemia): > 100 µM
- GI50 (SK-MEL-2 melanoma): > 100 µM
- TGI (SK-MEL-2 melanoma): > 100 µM
- GI50 (PC-3 prostate): 1.67 µM
- TGI (PC-3 prostate): 16.2 µM
- GI50 (HOP-92 NSCLC): 0.535 µM
- TGI (HOP-92 NSCLC): 3.64 µM
